Measurements from ChEMBL document CHEMBL1158217, “Tetranortriterpenoids from Ruagea glabra” (1996).

What follows are compounds tested on Spodoptera frugiperda (assay: Antifeedant activity against Spodoptera frugiperda final instar larvae at 100 ppm after 18 hrs by glass fiber disk method).
Assay type: functional
Design: unit not given here

Going from `C=C1[C@@H]2CC[C@@]3(C)[C@H](c4ccoc4)OC(=O)C[C@]13O[C@H]1CC(=O)C(C)(C)[C@H](CC(=O)OC)[C@]12C` [METHYLANGOLENSATE] to `COC(=O)C[C@H]1C(C)(C)[C@H](OC(C)=O)[C@H]2C(=O)[C@]1(C)[C@H]1CC[C@]3(C)[C@@H](CC(=O)O[C@H]3c3ccoc3)[C@]13O[C@H]23` [XYLOCARPIN], the Activity rises from 66.4 to 77.8.

First: COC(=O)C[C@H]1C(C)(C)[C@H](OC(=O)C(C)C)[C@H]2C(=O)[C@]1(C)[C@H]1CC[C@]3(C)[C@@H](CC(=O)O[C@H]3c3ccoc3)[C@]13O[C@H]23 [RUAGEANIN A]
Second: C/C=C(\C)C(=O)O[C@H]1C(C)(C)[C@H](CC(=O)OC)[C@]2(C)C(=O)[C@@]1(O)[C@H]1O[C@]13[C@@H]1CC(=O)O[C@@H](c4ccoc4)[C@]1(C)CC[C@H]23 [RUAGEANIN B]
The Activity of the first is lower: 72.6 for the first, 86.3 for the second.
